The target of the assay is T1, Lp-PLA2 (Homo sapiens, UniProt Q13093).
T1 construct: from tissue; host or cells: LDL from plasma (apheresis)
T1 sequence (Q13093 22-441): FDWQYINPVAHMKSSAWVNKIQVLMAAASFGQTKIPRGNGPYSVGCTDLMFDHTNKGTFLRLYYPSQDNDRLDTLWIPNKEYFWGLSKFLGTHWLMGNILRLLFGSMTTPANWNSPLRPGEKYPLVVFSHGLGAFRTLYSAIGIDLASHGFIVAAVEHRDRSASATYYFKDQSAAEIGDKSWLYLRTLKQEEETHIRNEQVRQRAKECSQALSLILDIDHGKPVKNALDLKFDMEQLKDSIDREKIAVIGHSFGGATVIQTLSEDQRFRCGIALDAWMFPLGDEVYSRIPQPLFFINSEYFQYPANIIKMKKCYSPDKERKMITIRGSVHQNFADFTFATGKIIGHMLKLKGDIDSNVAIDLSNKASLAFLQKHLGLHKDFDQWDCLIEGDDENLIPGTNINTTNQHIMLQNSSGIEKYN
The assay is described as follows: Screen for Lp-PLA2 inhibition (turnover of artificial substrate (A), absorbance at 405 nm). As to conditions: 37° C., pH 7.4, 10 min pre-incubation, 20 μM substrate (A). The class given is biochemical. The protocol: 1. Screen for Lp-PLA2 Inhibition.
Enzyme activity was determined by measuring the rate of turnover of the artificial substrate (A) at 37° C. in 50 mM HEPES (N-2-hydroxyethylpiperazine-N′-2-ethanesulphonic acid) buffer containing 150 mM NaCl, pH 7.4.
Assays were performed in 96 well titre plates.
Lp-PLA2 was pre-incubated at 37° C. with vehicle or test compound for 10 min in a total volume of 180 μl. The reaction was then initiated by the addition of 20 μl 10× substrate (A) to give a final substrate concentration of 20 μM. The reaction was followed at 405 nm for 20 minutes using a plate reader with automatic mixing. The rate of reaction was measured as the rate of change of absorbance.

The values that follow come from US8088886B2, “Lipoprotein associated phospholipase A2, inhibitors thereof and use of the same in diagnosis and therapy” (Smith-Kline Beecham P.L.C., priority 1993, dated 2012).

Compound `CCCCCCCCCCCCCCCCCCOCC(COP(=O)([O-])OCC[n+]1ccn(C)c1)NC(C)=O` (centres unmarked) [Compound 8] displayed a concentration for half-maximal inhibition (IC50) of 550 nM.
Under `CCCCCCCCCCCCCCCCOCC(COP(=O)([O-])OCC[N+](C)(C)C)NC(C)=O` (centres unmarked) [Compound 1] stands 800 nM.
Under `CCCCCCCCCCCCCCCCCCOCC(COP(=O)([O-])OCC[N+](C)(C)C)NC(=O)C(F)(F)F` (centres unmarked) [Compound 9] stands 2500 nM; under `CCCCCCCCCCCCCCCCCCOCC(COP(=O)([O-])OCC[S+](C)C)NC(C)=O` (centres unmarked) [Compound 3], 1000 nM; under `CCCCCCCCCCCCCCCCCCOCC(COP(=O)([O-])OCC[N+](C)(C)C)NC(C)=O` (centres unmarked) [Compound 2], 3500 nM.

What is called IC50 is the midpoint of a concentration-inhibition curve. Low readings indicate greater potency, high ones weaker potency.
